Assay results taken from US20250295790A1, “LECTIN-TARGETING CONJUGATES” (Helmholtz-Zentrum für Infektionsforschung GmbH, priority 2021, published 2025).

Format: in vitro ADME
Method: Each compound dissolved in DMSO was added to mouse plasma (pH 7.4, 37° C.) or to human plasma (pH 7.4, 37° C.) to yield a final concentration of 1 μM. In addition, procaine and procainamide (dissolved in DMSO) were added to mouse plasma or to human plasma (pH 7.4, 37° C.) to yield a final concentration of 1 μM. Procaine served as positive control as it is unstable in mouse plasma. Procainamide served as negative control as it is stable in mouse plasma. The samples were incubated for 0 min, 15 min, 30 min, 60 min, 90 min, 120 min and 240 min at 37° C. At each time point, 10 μl of the respective sample was extracted with 90 l acetonitrile and 1 μl of caffeine as internal standard for 5 min at 2000 rpm on a MixMate® vortex mixer (Eppendorf). Acetonitrile and caffeine were dispensed using a Mantis Formulatrix®. The samples were centrifuged for 20 min at 2270 ref at 4° C. and the supernatants were transferred to 96-well Greiner V-bottom plates. Samples were analysed using HPLC-MS/MS analysis as described in the respective section. Peak areas of each compound and of the internal standard were analysed using the MultiQuant 3.0 software (AB Sciex). […]
Cell samples as well as plasma stability, plasma protein binding and metabolic stability samples were analysed using an Agilent 1290 Infinity II coupled to an AB Sciex 6500plus mass spec-trometer. […]

CC(C)CC(NC(=O)CNC(=O)C(C)NC(=O)c1ccc(S(=O)(=O)NCC2OC(C)C(O)C(O)C2O)cc1)C(=O)NC(C)C(=O)NC1CCN(c2cc3c(cc2F)c(=O)c(C(=O)O)cn3C2CC2)C1 (centres unmarked) [Compound 37]
plasma stability, t1/2 human: 2.25 h
plasma stability, t1/2 mouse: 1.23 h
